Results: PubChem BioAssay AID1949 (Southern Research Institute, 2009)
Values after ≈ are worked out from the molar mass of the structure shown. Records with an inconclusive call do not appear. Active and inactive are the calls of the source. How the calls were made is not given here.

These compounds were tested on M. tuberculosis H37Rv growth inhibition (assay: Mycobacterium tuberculosis H37Rv growth inhibition, cell based, confirmatory dose response (AID 1949);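 further: bacteria grown 7 days with compound before Alamar blue readout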).

| Compound | IC50 |
| --- | --- |
| O=C(NC12CC3CC(CC(C3)C1)C2)N1CCN(c2cccc(Cl)c2)CC1 | 8.14 µg/mL (≈ 21.8 µM) |
| Cn1nc(-c2ccc(N3CCCCC3)c(NC(=O)c3ccco3)c2)c2ccccc2c1=O | > 50 µg/mL (inactive) |
| O=C(CSc1ccc(Br)cc1)Nc1ccccc1 | 7.69 µg/mL (≈ 23.9 µM) |
| O=[N+]([O-])c1c(Nc2ccccc2)[nH]c2ccccc12 | 9.27 µg/mL (≈ 36.6 µM) |
| CSc1ccc(C(CC(=O)c2ccccc2)Nc2ccc(F)cc2)cc1 (configuration not stated) | 1.47 µg/mL (≈ 4.02 µM) |
| CC(C)(C)c1cnc(NC(=O)c2ccccc2O)s1 | 1.06 µg/mL (≈ 3.84 µM) |
| O=C(Nc1ccc(N2CCCC2)c(Cl)c1)c1ccccc1F | 5.78 µg/mL (≈ 18.1 µM) |
| O=[N+]([O-])c1cccc(NC(=S)Nc2ccc(Cl)c(C(F)(F)F)c2)c1 | 2.62 µg/mL (≈ 6.97 µM) |
| Cc1ccc2cccc(OCC(=O)c3ccc(C)c(C)c3)c2n1 | 11.3 µg/mL (≈ 37.2 µM) |
| O=C(CSc1nc2ccccc2c(=O)[nH]1)NCc1ccccc1 | 0.28 µg/mL (≈ 0.86 µM) |
| c1ccc2sc(NC3=NCN(Cc4ccc5c(c4)OCO5)CN3)nc2c1 | 1.52 µg/mL (≈ 4.14 µM) |
| CN(CCOCCOc1ccc(I)cc1)Cc1ccccc1 | 6.75 µg/mL (≈ 16.4 µM) |
| Cc1ccccc1/C=C/c1ccc2cccc(O)c2n1 | < 0.1 µg/mL |
| CCc1ccc(C(=O)NC(=S)Nc2ccc(C(=O)OC)cc2)cc1 | 3.98 µg/mL (≈ 11.6 µM) |
| c1ccc(CNc2nc(N3CCN(Cc4ccccc4)CC3)nc3ccccc23)cc1 | 1.5 µg/mL (≈ 3.66 µM) |
| Cc1ccc(NC(=O)COc2ccc(F)cc2)cc1 | > 50 µg/mL (inactive) |
| CCCC(=O)N1CCN(c2ccc(NC(=O)c3cc(Br)ccc3Cl)cc2Cl)CC1 | 3.52 µg/mL (≈ 7.05 µM) |
| CCn1cc(C(=O)O)c(=O)c2cc(F)c(N3CCN(C(=S)Nc4cc(C(F)(F)F)ccc4Cl)CC3)cc21 | 2.99 µg/mL (≈ 5.37 µM) |
| CC(C)(C)C(=O)Nc1nc2c(Cl)c(Cl)ccc2s1 | 7.02 µg/mL (≈ 23.2 µM) |

| Compound | IC50 |
| --- | --- |
| O=[N+]([O-])c1ccc(-c2[nH]c(-c3cccc(F)c3)nc2-c2ccccc2)cc1 | 2.62 µg/mL (≈ 7.29 µM) |
| CC(Oc1ccc(C(C)(C)C)cc1)c1nc(-c2ccncc2)no1 (configuration not stated) | 22.8 µg/mL (≈ 70.6 µM) |
| Cc1ccc(C(C)(C)C)c(OCCCn2ccnc2)c1 | 3.87 µg/mL (≈ 14.2 µM) |
| COc1ccc2c(c1)CCC1Sc3ccccc3N=C21 (configuration not stated) | 1.43 µg/mL (≈ 5.08 µM) |
| COc1ccc(Nc2cc(C)nc3c2ccc2ccccc23)cc1 | 1.62 µg/mL (≈ 5.15 µM) |
| Cc1cccc(-c2nnc(SCC(=O)NCCc3ccccc3)o2)c1 | 0.25 µg/mL (≈ 0.707 µM) |
| COC(=O)C(C)Oc1ccc2c(=O)c(Oc3ccc(OC)cc3)coc2c1 (configuration not stated) | 5.99 µg/mL (≈ 16.2 µM) |
| O=C(Oc1ccc(Cl)c2cccnc12)c1ccc(Cl)cc1Cl | 11.6 µg/mL (≈ 32.9 µM) |
| O=C1C(Cl)=C(N2CCOCC2)C(=O)N1c1cccc(Cl)c1Cl | 20.9 µg/mL (≈ 57.7 µM) |
| O=C1OCCC1Sc1cccc2cccnc12 (configuration not stated) | 7.31 µg/mL (≈ 29.8 µM) |
| O=C(CCC(=O)OCc1cccc(C(=O)Oc2ccccc2)c1)Nc1cccc2ccccc12 | 12.6 µg/mL (≈ 27.8 µM) |
| COc1ccc(-c2nnc(SCC(=O)Nc3ccc([N+](=O)[O-])cc3)o2)cc1 | 0.64 µg/mL (≈ 1.66 µM) |
| O=C(CCCC(=O)N1CCC(Cc2ccccc2)CC1)N1CCC(Cc2ccccc2)CC1 | 12.1 µg/mL (≈ 27.1 µM) |
| CCOC(=O)c1ccc(NC(=S)Nc2cc(Cl)c(Cl)cc2Cl)cc1 | 2.72 µg/mL (≈ 6.74 µM) |
| Clc1ccc2[nH]c3c(c2c1)CCc1cn[nH]c1-3 | > 50 µg/mL (inactive) |
| O=[N+]([O-])c1ccc(O)c(-c2nc3ccccc3s2)c1 | > 50 µg/mL (inactive) |
| CCN1CCN(c2ccc(NC(=O)CC34CC5CC(CC(C5)C3)C4)cc2Cl)CC1 | 49.4 µg/mL (≈ 119 µM) |
| Cc1ccc(NC(=O)c2ccc(N3CCN(C)CC3)c([N+](=O)[O-])c2)cc1Cl | 2.22 µg/mL (≈ 5.71 µM) |
| O=C(NCCC1=CCCCC1)C12CC3CC(CC(C3)C1)C2 | 11.2 µg/mL (≈ 39 µM) |

| Compound | IC50 |
| --- | --- |
| CC(Oc1ccc(C(=O)NC2CCCCC2)cc1)C(=O)OCc1ccccc1Cl (configuration not stated) | 0.95 µg/mL (≈ 2.28 µM) |
| O=C1NC(=O)N(c2ccc(Cl)cc2)C(=O)/C1=C\c1ccc([N+](=O)[O-])s1 | 5.58 µg/mL (≈ 14.8 µM) |
| O=c1c2oc3cccc4c3n(c=2c(=O)c2ccccc12)CCC4 | 5.4 µg/mL (≈ 17.8 µM) |
| Cc1ccc(C(=O)Nc2ccc(N3CCCC3)c(Cl)c2)c(C)c1 | 6.72 µg/mL (≈ 20.4 µM) |
| COC(=O)COc1ccc(NC(=O)CSc2ccc(Cl)cc2)cc1 | 0.77 µg/mL (≈ 2.1 µM) |
| Cc1cc(OCCCn2ccnc2)ccc1Cl | 1.94 µg/mL (≈ 7.74 µM) |
| COc1ccccc1-c1c(C)oc2cc(OCc3ccccc3)ccc2c1=O | 9.15 µg/mL (≈ 24.6 µM) |
| O=C(COc1ccc(Br)cc1)c1ccc(F)cc1 | 10.7 µg/mL (≈ 34.5 µM) |
| COc1ccc(-c2nn(-c3ccccc3)cc2CNCc2ccccc2)cc1 | 6.04 µg/mL (≈ 16.3 µM) |
| C=CCNCCCCOc1ccc(Cl)cc1C(C)(C)C | 4.64 µg/mL (≈ 15.7 µM) |
| CCOc1ccc(Nc2nc(N)c(C(=O)C(C)(C)C)s2)cc1 | 5.96 µg/mL (≈ 18.7 µM) |
| O=C1c2cccc3cccc(c23)C(=O)N1CC1CCN(CC(O)COc2ccc3ccccc3c2)CC1 (configuration not stated) | 0.84 µg/mL (≈ 1.7 µM) |
| O=C(Nc1ccc(OC(F)(F)F)cc1)Nc1cccc([N+](=O)[O-])c1 | 0.19 µg/mL (≈ 0.557 µM) |
| CCOC(=O)C1=C(c2ccc(OC)cc2)C(=O)c2ccccc2C1=O | 6.6 µg/mL (≈ 19.6 µM) |
| O=C1N(Cc2ccccc2Cl)c2ccc(Cl)cc2C1(O)c1c[nH]c2ccccc12 (configuration not stated) | 3.04 µg/mL (≈ 7.18 µM) |
| Cc1cc(Nc2cccc(Cl)c2)nc(NCc2ccccc2)n1 | 1.39 µg/mL (≈ 4.28 µM) |
| Fc1ccccc1-c1nc(-c2cnc3ccccc3c2)c(-c2cccs2)[nH]1 | 5.05 µg/mL (≈ 13.6 µM) |
| Cc1cc(C)nc(/N=C(\N)Nc2ccccc2Sc2ccccc2)n1 | > 50 µg/mL (inactive) |
| COC(=O)CSc1nnc(-c2ccc(Cl)cc2)o1 | < 0.1 µg/mL |
